Test results from the supplement of paper PMC9938120.

Key:
Assay in all cases: drug sensitivity score (DSS3, normalised partial AUC of % inhibition dose-response) (DSS (score)); higher = more sensitive (stronger inhibition of viability); extreme values may be limits of the assay
[1] = system: FMOC17 (patient-derived low-grade serous ovarian cancer cells); conditions: 72 h; library: FO5A; assay format: 2D, 384-well, CellTiter-Glo
In short: (§1)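 Cells were dispensed onto 384-well flat clear-bottom plates already holding compounds at five concentrations over a 10,000-fold range, using patient-derived ovarian cancer cells at passage under 10. Incubation lasted 72 h at 37 °C in 5% CO2, after which CellTiter-Glo viability data were processed in Breeze. Higher drug sensitivity scores, each a partial area under the percent-inhibition dose-response curve divided by the log of the upper asymptote, mean more sensitive cells.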

[2] = system: FMOC25_2 (patient-derived low-grade serous ovarian cancer cells); conditions: 72 h; library: FO5A; assay format: 2D, 384-well, CellTiter-Glo
In short: as §1

[3] = system: FMOC09 (patient-derived high-grade serous ovarian cancer cells); conditions: 72 h; library: FO5A; assay format: 2D, 384-well, CellTiter-Glo
In short: as §1

[4] = system: FMOC02_1 (patient-derived low-grade serous ovarian cancer cells); conditions: 72 h; library: FO5A; assay format: 2D, 384-well, CellTiter-Glo
In short: as §1

[5] = system: FMOC04 (patient-derived high-grade serous ovarian cancer cells); conditions: 72 h; library: FO5A; assay format: 2D, 384-well, CellTiter-Glo
In short: as §1

[6] = system: FMOC06 (patient-derived mucinous ovarian cancer cells); conditions: 72 h; library: FO5A; assay format: 2D, 384-well, CellTiter-Glo
In short: as §1

[7] = system: FMOC25_1 (patient-derived low-grade serous ovarian cancer cells); conditions: 72 h; library: FO4B; assay format: 2D, 384-well, CellTiter-Glo
In short: as §1

[8] = system: FMOC24 (patient-derived high-grade serous ovarian cancer cells); conditions: 72 h; library: FO5A; assay format: 2D, 384-well, CellTiter-Glo
In short: as §1

[9] = system: FMOC14 (patient-derived high-grade serous ovarian cancer cells); conditions: 72 h; library: FO5A; assay format: 2D, 384-well, CellTiter-Glo
In short: as §1

[10] = system: FMOC02_3 (patient-derived low-grade serous ovarian cancer cells); conditions: 72 h; library: FO5A; assay format: 2D, 384-well, CellTiter-Glo
In short: as §1

[11] = system: FMOC28 (patient-derived low-grade serous ovarian cancer cells); conditions: 72 h; library: FO5A; assay format: 2D, 384-well, CellTiter-Glo
In short: as §1

[12] = system: FMOC22 (patient-derived mucinous ovarian cancer cells); conditions: 72 h; library: FO5A; assay format: 2D, 384-well, CellTiter-Glo
In short: as §1

[13] = system: FMOC02_2 (patient-derived low-grade serous ovarian cancer cells); conditions: 72 h; library: FO5A; assay format: 2D, 384-well, CellTiter-Glo
In short: as §1

[14] = system: FMOC11 (patient-derived high-grade serous ovarian cancer cells); conditions: 72 h; library: FO5A; assay format: 2D, 384-well, CellTiter-Glo
In short: as §1

[15] = system: FMOC27 (patient-derived low-grade serous ovarian cancer cells); conditions: 72 h; library: FO5A; assay format: 2D, 384-well, CellTiter-Glo
In short: as §1

[16] = system: FMOC03 (patient-derived mucinous ovarian cancer cells); conditions: 72 h; library: FO5A; assay format: 2D, 384-well, CellTiter-Glo
In short: as §1

SMILES | drug sensitivity score [1] | drug sensitivity score [2] | drug sensitivity score [3] | drug sensitivity score [4] | drug sensitivity score [5] | drug sensitivity score [6] | drug sensitivity score [7] | drug sensitivity score [8] | drug sensitivity score [9] | drug sensitivity score [10] | drug sensitivity score [11] | drug sensitivity score [12] | drug sensitivity score [13] | drug sensitivity score [14] | drug sensitivity score [15] | drug sensitivity score [16]
CCOc1ccn(-c2ccc(F)cc2)c(=O)c1C(=O)Nc1ccc(Oc2ccnc(N)c2Cl)c(F)c1 | 0 | 0 | 0 | 0 | 0 | 0 | 0 | 0 | 0 | 0 | 0 | 0 | 0.9 | 0 | 0 | 0
CCn1c(-c2nonc2N)nc2cnc(Oc3cccc(NC(=O)c4ccc(OCCN5CCOCC5)cc4)c3)cc21 | 2 | 3.8 | 2.3 | 4.8 | 0.6 | 1.3 | 0 | 2.3 | 2.2 | 6.3 | 0.4 | 1.7 | 1.6 | 3.7 | 2.9 | 0.4
CCn1c(C(=O)N(C2CC2)C2CC2)cc2c3c(ncn3C)c(Nc3cc(C)n(C)n3)nc21 | 2.8 | 0.4 | 2.1 | 0.6 | 0 | 0 | 0 | 1.05 | 0 | 4.7 | 0.9 | 0 | 1.4 | 0.1 | 0.8 | 0.9
CN(c1ncccc1CNc1nc(Nc2ccc3c(c2)CC(=O)N3)ncc1C(F)(F)F)S(C)(=O)=O | 7 | 7.8 | 5.1 | 6.6 | 5.3 | 6.6 | 3.9 | 5.3 | 3.6 | 9.5 | 7.9 | 5.7 | 9.4 | 4.9 | 5.2 | 7.1
CNC(=O)c1ccc(C)c(-n2c(C)cc(OCc3ccc(F)cc3F)c(Br)c2=O)c1 | 0.3 | 0 | 0 | 0 | 0 | 0 | 0 | 0 | 0 | 0 | 0 | 0 | 0 | 0 | 0 | 0
CNc1nc(-c2ccc3c(N)n[nH]c3c2)cc(N2C[C@@H](C(=O)NC3CCCCC3)CC[C@H]2C)n1 | 0 | 5.7 | 0 | 3.8 | 0.5 | 4.2 | 6.9 | 0 | 0.6 | 0.8 | 6 | 0 | 8.7 | 0 | 1.4 | 0
COc1cc2ncnc(Oc3cccc(NC(=O)Nc4cc(C(C)(C)C(F)(F)F)on4)c3)c2cc1OC | 0 | 1.1 | 1.3 | 4 | 0 | 0.3 | 0 | 0 | 0.3 | 4.4 | 0 | 0 | 6.6 | 3.3 | 0 | 0
C[C@@H](Oc1ccc2[nH]nc(/C=C/c3cnn(CCO)c3)c2c1)c1c(Cl)cncc1Cl | 4.1 | 6.8 | 3.3 | 6.3 | 1.8 | 6 | 1 | 1.7 | 0 | 3.9 | 0.6 | 3.5 | 4.2 | 2.4 | 2.4 | 3.1
Cc1c(Cn2c(C)nc3c(C(=O)O)cc(N4CCOCC4)cc32)cccc1C(F)(F)F | 0 | 11.4 | 0 | 0 | 0.65 | 0.6 | 3.5 | 3 | 2.5 | 2.2 | 7.2 | 0 | 6.3 | 0 | 0.1 | 0.5
NCC(=O)Nc1ccc(-n2nc(C(F)(F)F)cc2-c2ccc3c(ccc4ccccc43)c2)cc1 | 1.9 | 5.2 | 0 | 6.9 | 1.2 | 0 | 7.9 | 3.05 | 0 | 1.8 | 4.5 | 0.8 | 4.3 | 0 | 0 | 0.4
Nc1nccc(-c2c(-c3ccc(F)cc3)ncn2C2CCCCC2)n1 | 1.6 | 1.8 | 0 | 4.9 | 0.05 | 0.1 | 1.7 | 0.85 | 0.2 | 1.1 | 6.9 | 0.4 | 3.4 | 2.5 | 1 | 1.6
Nc1ncnc2c1c(COc1cccc(Cl)c1)nn2C1CCOCC1 | 0 | 1.9 | 0 | 0.5 | 0 | 0 | 0.6 | 0 | 0.3 | 0.4 | 0 | 0 | 1 | 0 | 0.8 | 0
O=C(O)c1ccc(-c2c[nH]c3ncc(-c4ccccc4)cc23)cc1C1CCCC1 | 0 | 0.4 | 0 | 0 | 0 | 0 | 0 | 0.65 | 0 | 0 | 2.9 | 0.8 | 0 | 0 | 0 | 0.5
COCCNCc1ccc(-c2cc3nccc(Oc4ccc(NC(=O)C5(C(=O)Nc6ccc(F)cc6)CC5)cc4F)c3s2)nc1 [Sitravatinib] | 2.1 | 2.2 | 1.4 | 2.1 | 0.45 | 1.6 |  | 5.8 | 1.2 | 2.5 | 1.5 | 0.4 | 1.1 | 1.1 | 2.5 | 0.3
CC(C)Oc1ccc(-c2nn([C@@H](C)c3oc4ccc(F)cc4c(=O)c3-c3cccc(F)c3)c3ncnc(N)c23)cc1F [TGR-1202] | 3.5 | 0.1 | 0 | 1.6 | 0.05 | 0.3 |  | 0.2 | 1.7 | 2 | 4.6 | 0 | 1.1 | 0 | 0.1 | 0
CN(C(=O)c1ccc(F)cc1C(F)(F)F)C1CCN(c2nnc(-c3ccnn3C)c3ccccc23)CC1 [Taladegib] | 0 | 0 | 0 | 0 | 0 | 0 |  | 0 | 0 | 0 | 0 | 0 | 0 | 0 | 0 | 0
CN1CCC(COc2cnc(-c3cccc(Cn4nc(-c5cccc(C#N)c5)ccc4=O)c3)nc2)CC1 [Tepotinib] | 0.5 | 2.3 | 0 | 0.3 | 0.75 | 0 |  | 1.9 | 0 | 3.7 | 3.4 | 0 | 1.6 | 0 | 0 | 0.2
CC#CC(=O)N1CC[C@@H](n2c(=O)n(-c3ccc(Oc4ccccc4)cc3)c3c(N)ncnc32)C1 [Tirabrutinib] | 2.6 | 3.5 | 0 | 3.9 | 0 | 0 |  | 0 | 0 | 3.5 | 0 | 0 | 3.9 | 1.6 | 1.1 | 1.8
O=c1[nH]c(=O)n([C@H]2C[C@H](O)[C@@H](CO)O2)cc1C(F)(F)F [Trifluridine] | 0 | 0.2 | 0 | 0 | 0 | 1.2 |  | 0 | 0 | 0 | 0 | 0 | 0 | 0.3 | 0.5 | 0
Cc1cc(Nc2ncnc3ccc(NC4=NC(C)(C)CO4)cc23)ccc1Oc1ccn2ncnc2c1 [Tucatinib] | 0 | 0.5 | 0 | 0 | 0 | 0 |  | 0 | 0 | 0 | 1 | 0 | 0.1 | 0 | 0 | 0
CC[C@@H]1CN(C(=O)NCC(F)(F)F)C[C@@H]1c1cnc2cnc3[nH]ccc3n12 [Upadacitinib] | 0 | 0 | 0 | 0 | 0.1 | 1.3 |  | 1.2 | 0 | 0 | 2.1 | 0 | 0 | 0 | 0 | 0
CCCCOc1nc(N)c2c(n1)N(Cc1cccc(CN3CCCC3)c1)CC(=O)N2 [Vesatolimod] | 0 | 0.1 | 0.2 | 0 | 0 | 0 |  | 0 | 0 | 0 | 0 | 0 | 0 | 0 | 0 | 0
COc1cccc(-c2ccc(NC(=O)C3=C(C(=O)O)CCC3)c(F)c2)c1 [Vidofludimus] | 0 | 2.5 | 0 | 0 | 0.05 | 0 |  | 0 | 0 | 0 | 0 | 0 | 0 | 0.6 | 0 | 0.4
CC[C@]12C=CCN3CC[C@@]4(c5cc([C@@]6(C(=O)OC)C[C@@H]7C[C@@H](C(C)(F)F)CN(Cc8c6[nH]c6ccccc86)C7)c(OC)cc5N(C)[C@H]4[C@@](O)(C(=O)OC)[C@@H]1OC(C)=O)[C@@H]32 [Vinflunine] | 5.1 | 3.6 | 3.6 | 3.6 | 4.1 | 0.8 |  | 0 | 0 | 5.8 | 1.3 | 0.9 | 3.2 | 3.4 | 0.6 | 1.7
